Test system: CD-1 mice
Assay: Model of scratching induced by histamine in CD-1 mice (assessment of H4 antagonism)
Format: in vivo
Details: 30 mg/kg oral gavage 30 min before i.d. histamine; bouts counted for 20 minutes; female CD-1 mice
Method: Assessment of H4 Antagonism—Model of Scratching Induced by Histamine in CD-1 mice.
Female CD-1 mice (Charles River, Hollister, Calif.), approximately 10 weeks old were housed under controlled conditions (12 h light: 12 h dark, 21° C.) and allowed ad libitum access to food (Purina LabDiet 5P14) and water. Animals were deprived of access to food and water for 1 hour during the experimental itch protocol. All studies were performed under the guidelines of the Institutional Animal Care and Use Committee of Kalypsys, Inc.
At least 24 hours prior to study initiation, the hair on the rostral dorsum of the animal was clipped to clear a location for intradermal (i.d.) injection of pruritogen (histamine, dissolved in Dulbecco's PBS [pH 7.4] at a concentration of 10 μmol per 20 μL). Animals were dosed by oral gavage with vehicle (9/0.5/0.5/90 PEG-400/Tween-80/PVP-K30/1% carboxymethylcellulose in water) or test compounds (formulated as suspensions in vehicle) at 30 mg/kg in 200 μL by means of a 20 gauge 1.5″ feeding needle affixed to a 1 mL syringe. There were 8 mice per study group. Thirty minutes after oral dosing, animals were injected i.d. with 20 μL of histamine. Immediately afterward animals were placed into individual sections of a standard acrylic cage for observation, which was recorded digitally for a 20 minute period by video cameras (Panasonic SDR-S70/PC) for later review.
Quantitation of induced itch was measured as described previously (Bell, J. K. et al., British Journal of Pharmacology, 142:374-380, 2004) by counting the number of scratching bouts per animal in the 20 minute period after i.d. injection. A scratching bout was defined as three rapid scratch movements of the hind paw in the area of the injection site. Activity with the fore paws was deemed to be grooming and not scratching, and thus was not counted. All data were analyzed using GraphPad Prism (San Diego, Calif.) software, and reported as mean percentage reduction in scratching bouts versus vehicle control. The significance of antagonist effect on agonist-induced itching was analyzed using the nonparametric Mann-Whitney test with P values <0.05 being designated as statistically significant.
Data reported as NT refers to the example having been not tested. It is expected that these compounds when tested will be active and will have utility similar to those that have been tested. In Table 2 below, entries with superscript “1” are statistically significant according to the criteria outlined in the protocol above. Entries with superscript “2” are examples that have been tested on two separate days and the results reported below are the mean of the two experiments

Clc1ccc2nc(N3CCNCC3)c3nncn3c2c1 [Example 57, 8-chloro-4-(piperazin-1-yl)-[1,2,4]triazolo[4,3-a]quinoxaline]
Scratching Bouts (% change from vehicle control): −66^1%

CN1CCN(c2nc3ccc(Cl)cc3n3cnnc23)CC1 [Example 55, 8-chloro-4-(4-methylpiperazin-1-yl)-[1,2,4]triazolo[4,3-a]quinoxaline]
Scratching Bouts (% change from vehicle control): −65^1,2%

— patent US20120065187A1 (ALCON RESEARCH, LTD, priority 2008, published 2012)
